Source: patent US20250304544A1, “MOLEPHANTIN DERIVATIVES USEFUL IN THE TREATMENT OF CANCER” (Nanyang Technological University, priority 2021, published 2025)
Read-outs that look alike come from different tables or passages of the source.

How the values were obtained:
[1] = tested on: HCT116 cells xenograft; assay: HCT116 subcutaneous tumour xenograft mouse model; type: in vivo; conditions: HCT116 xenografted mice, 25 mg/kg intraperitoneal once every 2 days, after 21 days
Protocol: (§1) Female J:Nu outbred nude mice (5-6 weeks old) were injected subcutaneously at the right flank with 1×10^6 HCT116 or DLD-1 cells in 1:1 Hank's Balanced salt solution/Matrigel. Mice were assigned into treatment groups (4-5 mice per group) when tumour volumes reached 50-100 mm^3. Vehicle control (Ethanol:Kolliphor EL:saline=1:1:8), NYH001 (25 mg/kg), NYH002 (25 mg/kg) or 5-flurouracil (5-FU, 25 mg/kg) was given once every 2 days by intraperitoneal injection for 3 weeks. Bodyweight of the mice was taken every day and tumour size was measured twice a week. Tumour sizes were calculated using the formula, volume=(length×width^2)/2 mm^3. At the end of the 3 weeks treatment period, the mice were sacrificed and tumours excised. All procedures were approved by the NTU Institutional Animal Care and Use Committee (IACUC) and conducted in accordance with the IACUC protocol A20001.

[2] = tested on: DLD-1 cells xenograft; assay: DLD-1 subcutaneous tumour xenograft mouse model; type: in vivo; conditions: DLD-1 xenografted mice, 25 mg/kg intraperitoneal once every 2 days, after 21 days
Protocol: as §1

[3] = tested on: H1299; assay: MTT cytotoxicity assay, H1299; type: cell-based; conditions: Homo sapiens, NCI-H1299, H1299, lung carcinoma, 48 hours, absolute IC50
Protocol: (§2) To test the cytotoxicity effect of the compounds NYH001-NYH005 in various cancer cell types, different cancer cells were treated with the compounds for 48 hours and analyzed using MTT assay. […] Absolute IC50 values of the compounds were calculated (Table 1, FIG. 1A-C).

[4] = tested on: human hepatoma cell line (SMMC-7221); conditions: cited from earlier work
[5] = tested on: human myeloid leukemia cell line K562; conditions: cited from earlier work
[6] = tested on: MDA-MB-231; assay: MTT cytotoxicity assay, MDA-MB-231; type: cell-based; conditions: Homo sapiens, MDA-MB-231, breast adenocarcinoma, 48 hours, absolute IC50
Protocol: as §2

[7] = tested on: Hep3B; assay: MTT cytotoxicity assay, Hep3B; type: cell-based; conditions: Homo sapiens, liver carcinoma, 48 hours, absolute IC50
Protocol: as §2

[8] = tested on: DLD-1; assay: MTT cytotoxicity assay, DLD-1; type: cell-based; conditions: Homo sapiens
Protocol: as §2

[9] = tested on: A549; assay: MTT cytotoxicity assay, A549; type: cell-based; conditions: Homo sapiens, A549, lung carcinoma, 48 hours, absolute IC50
Protocol: as §2

[10] = tested on: PC3; assay: MTT cytotoxicity assay, PC3; type: cell-based; conditions: Homo sapiens, PC-3, PC3, prostate adenocarcinoma, 48 hours, absolute IC50
Protocol: as §2

[11] = tested on: Huh7; assay: MTT cytotoxicity assay, Huh7; type: cell-based; conditions: Homo sapiens, Huh-7, Huh7, liver carcinoma, 48 hours, absolute IC50
Protocol: as §2

[12] = tested on: Du145; assay: MTT cytotoxicity assay, Du145; type: cell-based; conditions: Homo sapiens, DU-145, Du145, prostate carcinoma, 48 hours, absolute IC50
Protocol: as §2

[13] = tested on: HCT116; assay: MTT cytotoxicity assay, HCT116; type: cell-based; conditions: Homo sapiens, HCT-116, HCT116, colon carcinoma, 48 hours, absolute IC50
Protocol: as §2

[14] = tested on: Mcf-7; assay: MTT cytotoxicity assay, Mcf-7; type: cell-based; conditions: Homo sapiens, MCF7, Mcf-7, breast adenocarcinoma, 48 hours, absolute IC50
Protocol: as §2

[15] = tested on: Hs746T; assay: MTT cytotoxicity assay, Hs746T; type: cell-based; conditions: Homo sapiens, stomach carcinoma, 48 hours, absolute IC50
Protocol: as §2

[16] = tested on: AGS; assay: MTT cytotoxicity assay, AGS; type: cell-based; conditions: Homo sapiens, stomach adenocarcinoma, 48 hours, absolute IC50
Protocol: as §2

[17] = tested on: cancer cells; assay: Colony formation (clonogenic) assay; type: cell-based; conditions: some cell lines, concentration as low as 1 μM
Protocol: To further confirm the growth inhibitory effect of compounds on cancer cells, colony formation assays were performed. Cells were treated with various doses of the compounds and allowed to grow for 7-10 days till they form colonies. Colonies were fixed and stained with 0.5% w/v crystal violet, containing methanol. The cell culture plates were rinsed with distilled water before scanning for quantification. Colony counts were quantified using Image J software.

[18] = tested on: human KB oral carcinoma cells; conditions: cytotoxic activity / proliferation; cited from earlier work
[19] = DLD-1, colon adenocarcinoma, 48 hours, MTT, absolute IC50, read-out: IC50

Molecule: O=c1[nH]cc(F)c(=O)[nH]1 [5-FU, 5-flurouracil, reference compound]
- reduction of average tumor volume compared to vehicle control [1]: 10.4%
- reduction of average tumor weight compared to vehicle control [1]: 21.9%
- reduction of average tumor volume compared to vehicle control [2]: 32.3%
- reduction of average tumor weight compared to vehicle control [2]: 38.7%

Molecule: C=C(C)C(=O)O[C@H]1C/C(C)=C/C(=O)/C=C(/C)[C@@H](O)[C@H]2OC(=O)C(=C)C12 (some centres unmarked) [NYH001, Molephantin]
- IC50 [3]: 2970 nM
- IC50 ([4]; read-out: IC50): 5800 nM
- IC50 ([5]; read-out: IC50): 7900 nM
- IC50 [6]: 3050 nM
- IC50 [7]: 3200 nM
- IC50 [8, 19]: 1500 nM
- reduction of average tumor volume compared to vehicle control [1]: 35.4%
- reduction of average tumor weight compared to vehicle control [1]: 41.7%
- IC50 [9]: 15000 nM
- IC50 [10]: 2440 nM
- IC50 [11]: 2880 nM
- IC50 [12]: 4180 nM
- IC50 [13]: 2630 nM
- IC50 [14]: 4820 nM
- IC50 [15]: 1920 nM
- IC50 [16]: 1540 nM

Molecule: C=C(C)C(=O)O[C@H]1C/C(C)=C/C(=O)/C=C(/C)[C@@H](OC(=O)c2ccccc2)[C@H]2OC(=O)C(=C)C12 (some centres unmarked) [NYH002]
- IC50 [3]: 1350 nM
- colonies formed [17]: did not result in any colonies formed
- IC50 [6]: 909 nM
- IC50 [7]: 911 nM
- IC50 [8, 19]: 353 nM
- reduction of average tumor volume compared to vehicle control [1]: 46.5%
- reduction of average tumor weight compared to vehicle control [1]: 49.3%
- IC50 [9]: 5080 nM
- IC50 [10]: 1280 nM
- IC50 [11]: 1160 nM
- IC50 [12]: 2360 nM
- IC50 [13]: 869 nM
- IC50 [14]: 2000 nM
- IC50 [15]: 468 nM
- reduction of average tumor volume compared to vehicle control [2]: 51.9%
- reduction of average tumor weight compared to vehicle control [2]: 57.3%
- IC50 [16]: 421 nM

Molecule: C=C(C)C(=O)O[C@H]1C/C(C)=C/C(=O)/C=C(/C)[C@@H](OC(=O)c2ccc(C(F)(F)F)cc2)[C@H]2OC(=O)C(=C)C12 (some centres unmarked) [NYH004]
- IC50 [3]: 1670 nM
- IC50 [6]: 1140 nM
- IC50 [7]: 1850 nM
- IC50 [8, 19]: 933 nM
- IC50 [9]: 5230 nM
- IC50 [10]: 1970 nM
- IC50 [11]: 1590 nM
- IC50 [12]: 3000 nM
- IC50 [13]: 1300 nM
- IC50 [14]: 2040 nM
- IC50 [15]: 1190 nM
- IC50 [16]: 1020 nM

Molecule: C=C(C)C(=O)O[C@H]1C/C(C)=C/C(=O)/C=C(/C)[C@@H](OC(=O)c2cc(C(F)(F)F)cc(C(F)(F)F)c2)[C@H]2OC(=O)C(=C)C12 (some centres unmarked) [NYH005]
- IC50 [3]: 1550 nM
- IC50 [6]: 1470 nM
- IC50 [7]: 2000 nM
- IC50 [8, 19]: 615 nM
- IC50 [9]: 5860 nM
- IC50 [10]: 2480 nM
- IC50 [11]: 2090 nM
- IC50 [12]: 3600 nM
- IC50 [13]: 1590 nM
- IC50 [14]: 2380 nM
- IC50 [15]: 1940 nM
- IC50 [16]: 1120 nM

Molecule: C=C(C)C(=O)O[C@H]1C/C(C)=C/C(=O)/C=C(/C)[C@@H](OC(=O)c2ccc([N+](=O)[O-])cc2)[C@H]2OC(=O)C(=C)C12 (some centres unmarked) [NYH007]
- IC50 ([8]; DLD-1 cells, read-out: IC50 (cytotoxic effect)): 350 nM

Molecule: C=C(C)C(=O)O[C@H]1C/C(C)=C\[C@@]2(OC)C=C(C)[C@@H](O2)[C@H]2OC(=O)[C@@H](COC)[C@@H]21 [Tomenphantopin-C]
- IC50 [4]: inactive
- IC50 [5]: inactive

Molecule: Tomenphantine-A
- ED50 [18]: 3.0 µg/mL

Molecule: Tomenphantine-B
- ED50 [18]: 2.7 µg/mL

Molecule: Tomenphantopin-A
- ED50 [18]: 2.5 µg/mL

Molecule: Tomenphantopin-B
- ED50 [18]: 5.0 µg/mL

Molecule: Tomenphantopin-D
- IC50 ([4]; read-out: IC50): 11200 nM
- IC50 ([5]; read-out: IC50): 44800 nM

Molecule: Tomenphantopin-E
- IC50 [4]: inactive
- IC50 [5]: inactive

Molecule: Tomenphantopin-F
- IC50 [4]: inactive
- IC50 [5]: inactive
